We go through one compound from paper PMC3908613 (Bioscience Reports, 2014).

In experiment [1] the target is T1, GST-Mst1 (Homo sapiens, UniProt Q13043).
T1 construct: GST; purchased DSTT
T1 sequence (Q13043 1-487): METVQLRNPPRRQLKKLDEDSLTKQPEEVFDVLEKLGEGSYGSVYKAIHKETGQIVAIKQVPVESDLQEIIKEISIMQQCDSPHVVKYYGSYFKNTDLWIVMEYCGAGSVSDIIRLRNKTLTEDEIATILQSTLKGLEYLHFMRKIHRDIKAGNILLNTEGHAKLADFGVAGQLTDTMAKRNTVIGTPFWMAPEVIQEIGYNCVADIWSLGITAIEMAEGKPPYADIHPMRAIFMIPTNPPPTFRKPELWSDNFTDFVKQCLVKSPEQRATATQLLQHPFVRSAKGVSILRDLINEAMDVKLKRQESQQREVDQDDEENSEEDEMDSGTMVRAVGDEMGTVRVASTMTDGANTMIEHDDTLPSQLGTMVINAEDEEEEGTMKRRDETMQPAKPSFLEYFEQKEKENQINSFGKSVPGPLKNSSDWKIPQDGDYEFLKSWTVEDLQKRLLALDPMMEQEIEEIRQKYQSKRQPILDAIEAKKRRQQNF
Put plainly: Kinase assay for recombinant Mst1. It counts as biochemical. The note with it: 100 μM ATP, myelin basic protein substrate.

The subject of experiment [2] is BMDC. The experiment is described as follows: Cytokine production by LPS-stimulated BMDC (ELISA). In kind it is cell-based, C57BL/6 mice. The method, then:
DCs were generated from the bone marrow or the spleen of C57BL/6 mice as previously described. Briefly, bone marrow cells were cultured for 7 days at 37°C, 5% (v/v) CO2 in complete RPMI medium supplemented with 10 ng/ml recombinant granulocyte-macrophage colony-stimulating factor (GM-CSF; Peprotech). Spleen cells were cultured for 14 days at 37°C, 5% CO2 in complete RPMI containing 10 ng/ml GM-CSF and 1 ng/ml TGFβ (transforming growth factor-β; R&D Systems). NIH3T3 cells (European Cell Culture Collection) were cultured in DMEM (Dulbecco's modified Eagle's medium) supplemented with glutamine, penicillin, streptomycin and 10% (v/v) calf serum (Invitrogen). […] The amounts of TNFα (tumour necrosis factor α), IL6 (interleukin 6) and IL10 in the supernatant were measured using ELISA kits specific for each cytokine (TNFα, IL6; Peprotech, IL10; R&D Systems).
Background: In an ELISA, binding on a coated surface is turned into a signal by an enzyme label.

Experiment [3] has as its system BMDC. The experiment is described as follows: Immunoblot of phosphorylated signalling proteins in stimulated BMDC. It counts as cell-based, C57BL/6 mice. On the procedure: (§1) BMDC (1.5×10^6 cells) were incubated in 6-well plates in RPMI supplemented with 0.3% FCS for 5 h at 37°C. […] NIH3T3 cells (2×10^4) were plated in 6-well plates for 48 h at 37°C. The cells were deprived of serum for 8 h in DMEM supplemented with 2 mg/ml BSA (Sigma) and then stimulated with 100 ng/ml EGF (epidermal growth factor; Peprotech) for 5 min at 37°C.
(§2) Cells were washed in cold PBS, lysed on ice for 10 min in lysis buffer (1% Triton X-100 containing 50 mM Tris–HCl (pH 7.5), 150 mM NaCl, 1 mM EGTA, 1 mM EDTA, 10 mM NaF, 1 mM sodium orthovanadate and 5 mM sodium pyrophosphate and protease inhibitors (Roche)) and centrifuged for 10 min at 20000 g at 4°C.
BMDC (5×10^6 cells) were stimulated as described above. Lysates were pre-cleared with protein G Sepharose beads (Roche) for 30 min at 4°C. Paxillin was immunoprecipitated with 2 μg of anti-paxillin (Millipore) or with anti-IgG antibodies (Santa Cruz Biotechnology) for 1 h at 4°C and then incubated with 15 μl protein G Sepharose beads for 1 h at 4°C. Beads were washed four times with lysis buffer and paxillin was eluted with NuPage sample buffer (Invitrogen). The immunoprecipitated proteins were separated by electrophoresis on a 10% (w/v) NuPage gel and transferred onto a nitrocellulose membrane. The membrane was probed with anti-phospho Ser250-paxilin (kind gift of Luc Sabourin, McMaster University, Canada) or anti-paxillin antibodies.
(Immunoblotting shows a protein as a band on a membrane.)

In experiment [4] the test system is NIH3T3 cells. Put plainly: Immunoblot of PKB phosphorylation in EGF-stimulated NIH3T3 cells. In kind it is cell-based. The note with it: EGF 100 ng/ml, 4 μM D1870. On the procedure: as §1, §2
Experiment [5] relates to Rsks. The note with it: cited from earlier work.
In experiment [6] the test system is PLK1. The note with it: cited from earlier work.
The subject of experiment [7] is Aurora B. The note with it: cited from earlier work.
Where [8] appears, read: LPS 50 ng/ml, 18 h, increasing concentrations of inhibitor.

Turning to `CC(C)CCN1c2nc(Nc3cc(F)c(O)c(F)c3)ncc2N(C)C(=O)C1C` (stereo not shown) [D1870, BI-D1870], the IC50 in experiment [1] is ~300 nM. Moreover, in experiment [2] (setting [8]), the IL6 secretion result is on record as “dose-dependent inhibition”, the IL10 secretion result was “dose-dependent inhibition” and the TNFα production result is “not by D1870”. Moreover, the “mRNA levels of IL6 and IL10” value in experiment [2] (after 1 or 3 h of LPS stimulation, data not shown) is recorded as “rapidly inhibited”. In experiment [3] (LPS 50 ng/ml, 30 min), the “Concentration blocking phosphorylation of Bad (Ser112)” value is […]; the “Concentration blocking phosphorylation of filamin A (Ser2152)” value was […]; the “Erk1/2, p38 or JNK1/2 phosphorylation” value was “Neither inhibitor had any effect”; the GSK3α/β phosphorylation entry is listed as “more potent”. Moreover, in experiment [3] (LPS 50 ng/ml, 30 min), the “PKB phosphorylation at Ser473 and Thr308” value is “complete block”; the “Phosphorylation of MSK1 and MK2” value is “not affected”; the “phosphorylation of IκBα” value is “neither D1870 nor BIX affected”. In addition, the “phosphorylation of ERM proteins” value in experiment [3] (LPS, 30 min) is reported as “substantial decrease”. Moreover, in experiment [3] (LPS, 30 min, paxillin immunoprecipitated), the “phosphorylation of paxillin on Ser250” value is “prevented its phosphorylation at low concentrations”. Besides, the PKB phosphorylation entry in experiment [3] (MIP1α 100 ng/ml, 5 min, 4 μM D1870) is given as “impaired”. The PKB phosphorylation result in experiment [4] is “not affected”. The IC50 in experiment [5] is 10 to 30 nM. Moreover, the IC50 in experiment [6] is […]. The IC50 in experiment [7] is 340 nM.

One may read the IC50 as the concentration that gives 50% inhibition.
